{
  "source": "patent EP2401611B1",
  "about": "“IMPROVED METHODS FOR IDENTIFICATION” (Cambridge Enterprise Limited, priority 2009, dated 2010)",
  "key": {"[1]": {"system": "fetal rat pituicytes", "test": "Rat pituicyte GH suppression assay", "type": "cell-based", "settings": "Rattus norvegicus; for Emax: Table 3, percentage suppression compared to vehicle, read-out: Rat pituicyte GH suppression assay Max effect (%); for pEC50: Table 3, read-out: Rat pituicyte GH suppression assay ED50", "from_the_text": "Two different assays for \"classical\" sstr2 functions were adopted: (1) cultured foetal rat pituitary cells secreted growth hormone which is inhibited by sstr2 agonists in a dose-dependent fashion and (2) selected glucose-sensitive sub-clones of the human Panc-1 cell line secrete insulin which is inhibited by sstr2 agonists in a dose-dependent fashion.\nMethods: Cultures of fetal rat pituicytes were established exactly as previously described (Murray et al. (2004) J. Clin. Endocrinol. Metab. 89:3027-32) by enzymatic dispersion. After 48hrs in low glucose DMEM plus 10% FCS, cells in 48 well plates (5 x 10^4 cells per well) were washed for 4hrs in serum-free DMEM and then incubated with test agents at various concentrations for a further 24hrs in serum-free DMEM. At the end of this period, the conditioned medium was harvested, any cell debris removed by centrifugation and assayed for GH using a commercially available ELISA (Linco; cat# EZRMGH-45K) in accordance with the manufacturer's instructions.\nResults were reported as the mean ± SD, expressed as the fold change from cells in the presence of vehicle only."}, "[2]": {"system": "rat peripheral blood leukocytes", "test": "Rat chemokine-induced PBMC migration assay", "type": "cell-based", "settings": "for pEC50 / Emax: Rattus norvegicus, Leukocyte, Table 3; for pEC50: read-out: Rat chemokine-induced PBMC migration assay ED50; for Emax: read-out: Rat chemokine-induced PBMC migration assay Max effect (%); for \"Classical\" : \"BSCI\" potency ratio Rat: Table 3, rat PBMC migration ED50 versus rat pituicyte GH suppression ED50"}, "[3]": {"system": "Jurkat T cells", "test": "SDF-1α induced migration of parental Jurkat T cells", "type": "cell-based, human", "description": "Jurkat T cells and Jurkat-D3B cells were induced to migrate in response to 100ng/ml SDF-1α (R&D systems; the concentration of SDF-1α which induced maximal cell migration in both lines). The BSCI BN83250 was then added at various concentrations between 0nM and 1000nM (each in triplicate) to both the upper and lower compartments (at the same concentration in each compartment, so as not to create a gradient of BSCI concentration). DMSO (1% final concentration) was used as the vehicle, and was present in all wells at equal concentration."}, "[4]": {"system": "Jurkat-D3B cells", "test": "SDF-1α induced migration of Jurkat-D3B cells expressing sstr2", "type": "cell-based, human", "description": "Methods: Total mRNA was prepared from Panc-1 cells (a human pancreas cell line which is well known to express high levels of sstr2) using the RNAqueous 4PCR kit (Ambion, Cat code #1914) in accordance with the manufacturer's instructions. The mRNA was then reverse transcribed (using the RETROscript kit; Ambio) to yield a cDNA preparation. A full length cDNA of the sstr2 gene was then obtained by PCR (using a Peltier PTC-200 thermal cycler using the following cycle times and conditions: 94°C for 2 min, followed by 30 cycles of 94°C, for 30 sec, 55°C for 30sec, 72°C for 1 min and finally 72°C for 10 min), and isolated by preparative gel electrophoresis. The sequence of the sstr2 cDNA was confirmed by sequencing. The sstr2 cDNA was treated with EcoRI and Xhol to generate sticky ends, which allowed directional cloning into the polylinker of the plasmid pcDNA3.1+ (Invitrogen) followed by ligation (10µl ligation reactions were run with 400 T4 DNA ligase (New England Biolabs) and the maximal amounts of DNA with an insert:plasmid ratio of 3:1 in ligase buffer incubated overnight at 13°C). The resulting vector (see Fig. 13) was used to transform XL-10 Ultracompetent cells (Stratagene) using standard techniques. Plasmid DNA was prepared using a MiniPrep kit (Wizard Plus SV Minipreps DNA purification System; Promega) in accordance with the manufacturer's instructions for transfection into Jurkat T cells.\nJurkat T cells were grown in RPMI + 10% foetal calf serum (FCS), and subcultured by 1:3 dilution in fresh medium every 4 days. Jurkat T cells in logarithmic growth phase 48 hours after subculture were washed by centrifugation and resuspended in serum-free RPMI medium at 7.5 x 10^5 cells per ml. A mixture of DNA and transfection reagent (2µg of DNA; 3µl Fugene 6 transfection reagent; Roche) was then added and the cells were incubated at 37°C for 48 hours. The cells were then washed three times by centrifugation in RPMI + 10% FCS, before being suspended in fresh medium at 1 x 10^5 cells per ml. 68 ml of the resulting cell suspension was then plated out in a total of 226 wells in 96-well plates (Corning). After 48hrs, G418 (0.9mg/ml Active G418) was added to the medium to select for transfectants, and the cells were expanded by repeated subculture, keeping the populations from individual wells (which were considered clonal or oligoclonal expansions) separate. […]\nA number of individual cell lines were obtained in this way, which expressed significant levels of sstr2 on the cell surface, detected by flow cytometry using the human-sstr2 antibody (Sigma, S0694; see Example 3 for details of the flow cytometry protocol used). […]"}, "[5]": {"target": "sstr2 (Homo sapiens, UniProt P30874)", "sequence (P30874 whole entry)": "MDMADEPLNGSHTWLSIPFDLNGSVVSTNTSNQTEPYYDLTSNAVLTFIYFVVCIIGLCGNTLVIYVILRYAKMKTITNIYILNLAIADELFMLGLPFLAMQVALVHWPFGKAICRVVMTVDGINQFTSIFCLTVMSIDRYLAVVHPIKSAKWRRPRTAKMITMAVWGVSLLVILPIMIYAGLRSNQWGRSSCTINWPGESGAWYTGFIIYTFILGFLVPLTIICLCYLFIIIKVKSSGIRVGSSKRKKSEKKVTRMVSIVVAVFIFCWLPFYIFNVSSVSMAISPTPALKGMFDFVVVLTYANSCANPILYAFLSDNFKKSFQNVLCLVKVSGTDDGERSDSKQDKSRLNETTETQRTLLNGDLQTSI", "test": "[3H]-BN83250 equilibrium binding to THP-1 cells", "quoted_text": "We have investigated the molecular interaction between BSCIs and the sstr2 receptor using conventional equilibrium binding studies employing labelled BSCI ligands.\nFor the analysis of binding, individual reactions were set up (in triplicate for each condition), with 1x10^6 THP-1 cells in Gey's Balanced Salt Solution, 10nM [^3H]-BN83250 (at 50 Ci/mmol) and various concentrations of (S)-3(2'2'-dimethylpropionoylamino)-tetrahydropyridin-2-one (10pM to 10µM). Excess (100µM) unlabelled BN83250 was used to determine the level of non-specific binding. After 2 hours at 4°C (conditions previously shown to achieve equilibrium binding, and which prevent uptake of the radioligand that would result in an over-estimate of binding) excess label was washed away by centrifugation (3 washes with 5ml of Gey's Balanced Salt Solution) and the bound radioactivity was determined by scintillation counting of the solubilised cell pellet."}},
  "note": "pEC50, pKd: −log10 of the molar value.",
  "data": [
    {"smiles": "CCCCCCCCCCC(C)(C)C(=O)N[C@H]1CCCCNC1=O", "note": "[BN83250, (S)-3-(2',2'-dimethyldodecanoyl)amino-caprolactam]", "values": [
      {"measurement": "Emax", "setting": "[1]", "result": 63, "unit": "%"},
      {"measurement": "pEC50", "setting": "[1]", "result": 6.49},
      {"measurement": "pEC50", "setting": "[2]", "result": 9.55},
      {"measurement": "Emax", "setting": "[2]", "result": 100, "unit": "%"},
      {"measurement": "\"Classical\" : \"BSCI\" potency ratio Rat", "setting": "[2]", "result": 0.0009},
      {"measurement": "effect on SDF-1α induced migration of parental Jurkat T cell line (in words)", "setting": "[3]", "result": "little or no effect"},
      {"measurement": "inhibition of SDF-1α induced migration of Jurkat-D3B (in words)", "setting": "[4]", "result": "inhibits SDF-1α induced migration"},
      {"measurement": "pEC50", "setting": "[4]; Homo sapiens, 100ng/ml SDF-1α, Jurkat-D3B, read-out: ED50 (the source's name)", "result": "~8.00"},
      {"measurement": "increase in BSCI sensitivity from ectopic expression of sstr2", "setting": "[4]; Jurkat-D3B versus parental Jurkat T cells", "result": "more than 100 fold"},
      {"measurement": "pKd", "setting": "[5]", "result": "~7.10"}
    ]},
    {"smiles": "CC(C)(C)C(=O)N[C@H]1CCCNC1=O", "note": "[Valerolactam, (S)-3-(2'2'-dimethylpropionoylamino)-tetrahydropyridin-2-one]", "values": [
      {"measurement": "Emax", "setting": "[1]", "result": 61, "unit": "%"},
      {"measurement": "pEC50", "setting": "[1]", "result": 7.10},
      {"measurement": "pEC50", "setting": "[2]", "result": 10.15},
      {"measurement": "Emax", "setting": "[2]", "result": 100, "unit": "%"},
      {"measurement": "\"Classical\" : \"BSCI\" potency ratio Rat", "setting": "[2]", "result": 0.0009},
      {"measurement": "inhibition of SDF-1α induced migration of Jurkat-D3B (in words)", "setting": "[4]", "result": "sensitive to inhibition"},
      {"measurement": "inhibition of BN83250 binding", "setting": "[5]; 1nM and above", "result": "80-90%"},
      {"measurement": "Hill Slope", "setting": "[5]; competition with [3H]-BN83250", "result": "approximately -1.0"},
      {"measurement": "pEC50", "setting": "[5]; read-out: ED50 for competition with [3H]-BN83250 binding at sstr2, 10nM [3H]-BN83250", "result": "~10.30"}
    ]}
  ]
}
